Measured values from patent US11642307B2, “Ambrisentan for use in the treatment of acute renal failure” (Noorik Biopharmaceuticals AG, priority 2016, dated 2023).

What was measured:
healthy human subjects = assay: 24-hour intravenous ambrisentan infusion in healthy human subjects: urine output, water balance, free water clearance; type: in vivo
Procedure: A study was performed to determine whether lower concentrations of ambrisentan in blood are less likely to produce renal side effects as those seen with current concentrations achieved with the current commercial presentation of ambrisentan. In this study a liquid composition of ambrisentan at a concentration of 5 mg/mL was administered to 20 healthy human subjects at varying rates of administration in order to achieve different ambrisentan concentrations in blood and over a period of 24 hours. Target concentrations in the low dose group were 20 and 40 ng/mL (Group A) after 4 hours and 16 hours respectively, and 80 and 160 ng/mL in the high dose group (Group B) after 4 hours and 16 hours respectively. […] Steady state for each target concentration was maintained for at least 8 hours prior to increasing the concentration. Ten subjects were assigned to Group A and ten subjects to Group B. Pharmacokinetic and plasma ET-1 samples were collected and analysed at different timepoints for up to 72 hours. Urine was collected for 24 hours and in intervals from 0-2 hours, 2-4 hours, 4-8 hours, 8-12, hours, 12-18 hours and 18-24 hours.
All subjects received a 100 ml/hr infusion of 0.45% physiological solution for 24 hours and ambrisentan was administered in a 250-mL solution of 0.9% of physiological solution over a period of 24 hours. Subjects had free access to water and a normal diet. At a minimum, subjects received through intravenous infusion a total of 2650 mL of water and 223.3 mmol of sodium in the 24-hour period of drug administration.
The effect on urine was consistent throughout the different collection periods of the 24-hour infusion period. Patients in Group A maintained higher urinary output rates throughout the study as compared to Group B. In the Tables Below, Water Balance is the result of subtracting urine volume from intravenous liquid input.
The increase in urine formation (diuresis) was further characterised by determining the effect of ambrisentan on urine composition, specifically urine osmolality.

[1] = human studies, ambrisentan 5 and 10 mg/day; cited from earlier work
[2] = Raina et al; cited from earlier work
porcine kidneys = assay: Reperfusion of porcine kidneys following ischemic injury with endothelin-1 challenge; set-up: species or system Landrace cross female pigs; conditions: treated kidneys, ambrisentan 150 μg/l
Procedure: All experiments were undertaken in accordance with the Home Office animals (Scientific Procedures) Act 1986. Ten kidneys were retrieved from 5 Landrace cross female pigs weighing approximately 50 kg. Two pairs of kidneys underwent 20 minutes of warm ischaemic injury and were then flushed with 500 m1 of UW solution at 4° C. and stored on ice for 18 hours. After 18 hours cold storage, kidneys were prepared and flushed with 100 m1 of Ringer's solution 4° C. with or without liquid composition of Example 1 which is diluted to an ambrisentan concentration of 150 μg/l. They were then left at room temperature for 20 minutes. The remaining three pairs of kidneys were retrieved after 10 minutes of warm ischaemia and stored on ice for 6 hours. They were prepared and flushed as previously described then left at room temperature for 10 minutes before reperfusion.
Kidneys were perfused with 1 liter of diluted whole autologous heparinized blood at 38.0° C. for 6 hours to assess renal function and injury. 1000 μmol/l of creatinine (Sigma-Aldrich) was added to the circuit. In the treated kidneys the ambrisentan-containing liquid composition as described above (150 μg/l) was added to the reperfusion circuit 10 minutes before the start of reperfusion. In the control and treated kidneys after 2 h 50 min of reperfusion, endothelin-1 (Sigma-Aldrich) was added to the arterial line of reperfusion circuit to achieve a concentration of (20 pg/ml). A sample of the perfusate was taken from the renal vein during the post preservation flush. Perfusion data was recorded after 30 minutes of reperfusion then at each hour. Plasma and urine samples were taken pre-reperfusion, 30 minutes after reperfusion, then at hourly time points to measure renal function.

[3] = Stability of ambrisentan liquid compositions; type: physicochemical; conditions: use of an autoclave
Description: The liquid compositions of the invention can be prepared using conventional techniques. Typically, the invention pertains to a process for preparing a liquid composition comprising the steps of (a) contacting the endothelin receptor antagonist, preferably ambrisentan, the buffer and the solvent and optionally the excipient and (b) stirring the solution to allow dissolution of the various ingredients, in particular the endothelin receptor antagonist or ambrisentan; and (c) subsequently sterilizing the resulting solution. Step (a) of the process of the invention may comprise of contacting all ingredients at once or it may comprise contacting the ingredients in sequential order, whereby the one or more steps can proceed at the same temperature or at different temperatures. For example, the ingredients that easily dissolve in the solvent at room temperature can be contacted at room temperature first, and subsequently the temperature can be raised, e.g. to 50° C., after which the lowly soluble compounds are added, e.g. the endothelin receptor antagonist such as ambrisentan. Step (b) may proceed until no solid particles can be discerned visually or through analytical techniques. The sterilization of step (c) of the process can be conducted using any sterilization technique known in the art such as filtration and autoclave sterilization. […]

ETB receptor = target: T1, ETB receptor (Homo sapiens, UniProt P24530); assay: Plasma endothelin-1 as measure of ETB receptor blockade in healthy human subjects; type: in vivo; conditions: Group B (high dose, target 80 and 160 ng/mL)
T1 construct: from tissue; host or cells: living healthy human subjects (in vivo study; plasma endothelin-1 measured)
T1 sequence (P24530 27-442): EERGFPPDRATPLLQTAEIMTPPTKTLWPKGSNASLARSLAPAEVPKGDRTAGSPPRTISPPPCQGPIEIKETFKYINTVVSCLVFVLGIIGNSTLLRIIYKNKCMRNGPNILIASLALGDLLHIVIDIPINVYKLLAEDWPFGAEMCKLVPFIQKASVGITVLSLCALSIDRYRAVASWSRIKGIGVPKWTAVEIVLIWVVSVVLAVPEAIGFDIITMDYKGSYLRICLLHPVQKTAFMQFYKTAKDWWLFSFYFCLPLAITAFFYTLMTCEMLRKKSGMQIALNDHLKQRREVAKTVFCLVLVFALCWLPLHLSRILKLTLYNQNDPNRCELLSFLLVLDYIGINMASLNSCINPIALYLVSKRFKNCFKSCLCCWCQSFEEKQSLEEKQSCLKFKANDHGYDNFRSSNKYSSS
Procedure: Finally, the effect of the different concentrations of ambrisentan on the ETB receptor blockade was determined by measuring plasma endothelin-1 at different timepoints of the study.

[4] = time 180 min (endothelin-1 20 pg/ml added after 2 h 50 min)
[5] = time 240 min (after endothelin-1)
[6] = time 300 min (after endothelin-1)
[7] = time 360 min (after endothelin-1)

COC(c1ccccc1)(c1ccccc1)[C@H](Oc1nc(C)cc(C)n1)C(=O)O [ambrisentan]
Hourly Water Balance, Mean (healthy human subjects; Group A (low dose, target 20 and 40 ng/mL), collection period 0 H to 2 H): -74.58 mL/h
Hourly Water Balance, Mean (healthy human subjects; Group A (low dose, target 20 and 40 ng/mL), collection period 2 H to 4 H): -76.08 mL/h
Hourly Water Balance, Mean (healthy human subjects; Group A (low dose, target 20 and 40 ng/mL), collection period 4 H to 8 H): -1.08 mL/h
Hourly Water Balance, Mean (healthy human subjects; Group A (low dose, target 20 and 40 ng/mL), collection period 8 H to 12 H): -12.58 mL/h
Hourly Water Balance, Mean (healthy human subjects; Group A (low dose, target 20 and 40 ng/mL), collection period 12 H to 18 H): -13.75 mL/h
Hourly Water Balance, Mean (healthy human subjects; Group A (low dose, target 20 and 40 ng/mL), collection period 18 H to 24 H): -32.92 mL/h
Cumulative Water Balance, Mean (healthy human subjects; Group A (low dose, target 20 and 40 ng/mL), end of collection 2 H): -149.17 mL
Cumulative Water Balance, Mean (healthy human subjects; Group A (low dose, target 20 and 40 ng/mL), end of collection 4 H): -301.33 mL
Cumulative Water Balance, Mean (healthy human subjects; Group A (low dose, target 20 and 40 ng/mL), end of collection 8 H): -305.67 mL
Cumulative Water Balance, Mean (healthy human subjects; Group A (low dose, target 20 and 40 ng/mL), end of collection 12 H): -356.00 mL
Cumulative Water Balance, Mean (healthy human subjects; Group A (low dose, target 20 and 40 ng/mL), end of collection 18 H): -438.50 mL
Cumulative Water Balance, Mean (healthy human subjects; Group A (low dose, target 20 and 40 ng/mL), end of collection 24 H): -636.00 mL
Hourly Water Balance, Mean (healthy human subjects; Group B (high dose, target 80 and 160 ng/mL), collection period 0 H to 2 H): -6.33 mL/h
Hourly Water Balance, Mean (healthy human subjects; Group B (high dose, target 80 and 160 ng/mL), collection period 2 H to 4 H): 11.17 mL/h
Hourly Water Balance, Mean (healthy human subjects; Group B (high dose, target 80 and 160 ng/mL), collection period 4 H to 8 H): 27.17 mL/h
Hourly Water Balance, Mean (healthy human subjects; Group B (high dose, target 80 and 160 ng/mL), collection period 8 H to 12 H): 7.17 mL/h
Hourly Water Balance, Mean (healthy human subjects; Group B (high dose, target 80 and 160 ng/mL), collection period 12 H to 18 H): -10.08 mL/h
Hourly Water Balance, Mean (healthy human subjects; Group B (high dose, target 80 and 160 ng/mL), collection period 18 H to 24 H): 34.75 mL/h
Cumulative Water Balance, Mean (healthy human subjects; Group B (high dose, target 80 and 160 ng/mL), end of collection 2 H): -12.67 mL
Cumulative Water Balance, Mean (healthy human subjects; Group B (high dose, target 80 and 160 ng/mL), end of collection 4 H): 9.67 mL
Cumulative Water Balance, Mean (healthy human subjects; Group B (high dose, target 80 and 160 ng/mL), end of collection 8 H): 118.33 mL
Cumulative Water Balance, Mean (healthy human subjects; Group B (high dose, target 80 and 160 ng/mL), end of collection 12 H): 147.00 mL
Cumulative Water Balance, Mean (healthy human subjects; Group B (high dose, target 80 and 160 ng/mL), end of collection 18 H): 86.50 mL
Cumulative Water Balance, Mean (healthy human subjects; Group B (high dose, target 80 and 160 ng/mL), end of collection 24 H): 295.00 mL
fluid accumulation (healthy human subjects; ambrisentan concentrations above 100 ng/mL): significant accumulation of fluid through the inability to increase urinary output
renal effect, fluid retention (healthy human subjects; total ambrisentan lower than 100 ng/mL): have less of an effect on fluid retention
renal effect, fluid retention (healthy human subjects; total ambrisentan of about 100 ng/mL and higher): show an adverse renal effect by promoting fluid retention
plasma levels [1]: exceeding 350 ng/ml
pharmacokinetic interactions with cyclosporine A and tacrolimus [2]: absence of pharmacokinetic interactions
Oxygen consumption (porcine kidneys; 1 h of reperfusion): 63%
Oxygen consumption (porcine kidneys; 3 h of reperfusion): 64%
Oxygen consumption (porcine kidneys; 6 h of reperfusion): 55%
Renal blood flow (porcine kidneys; time 0 min): 45 ml/min/100 g
Renal resistance (porcine kidneys; time 0 min): 1.22 mmHg/min/100 g
Urine flow (porcine kidneys; time 0.5 h): 148 mL
Renal blood flow (porcine kidneys; time 30 min): 79 ml/min/100 g
Renal resistance (porcine kidneys; time 30 min): 0.58 mmHg/min/100 g
Urine flow (porcine kidneys; time 1 h): 124 mL
Renal blood flow (porcine kidneys; time 60 min): 84 ml/min/100 g
Renal resistance (porcine kidneys; time 60 min): 0.55 mmHg/min/100 g
Renal blood flow (porcine kidneys; time 120 min): 85 ml/min/100 g
Renal resistance (porcine kidneys; time 120 min): 0.56 mmHg/min/100 g
Urine flow (porcine kidneys; time 2 h): 116 mL
Urine flow (porcine kidneys; time 3 h): 80 mL
Renal blood flow (porcine kidneys; [4]): 85 ml/min/100 g
Renal resistance (porcine kidneys; [4]): 0.60 mmHg/min/100 g
Urine flow (porcine kidneys; time 4 h): 62 mL
Renal blood flow (porcine kidneys; [5]): 97 ml/min/100 g
Renal resistance (porcine kidneys; [5]): 0.56 mmHg/min/100 g
Urine flow (porcine kidneys; time 5 h): 44 mL
Renal blood flow (porcine kidneys; [6]): 93 ml/min/100 g
Renal resistance (porcine kidneys; [6]): 0.62 mmHg/min/100 g
Renal blood flow (porcine kidneys; [7]): 77 ml/min/100 g
Renal resistance (porcine kidneys; [7]): 0.78 mmHg/min/100 g
stability on autoclave sterilization [3]: can decompose
increase in plasma endothelin-1 from baseline (ETB receptor): more than 50%
